Test results published in patent US20230093861A1, “RAPAMYCIN ANALOGS AS MTOR INHIBITORS” (Revolution Medicines, Inc., priority 2017, published 2023).
Like-named read-outs stand apart in the source and are kept apart here.

Assays:
[1] = tested on: P-P70S6K (T389); assay: Cell based AlphaLISA assay, inhibition of P-P70S6K (T389) (mTORC1 substrate phosphorylation) in MDA-MB-468 cells; conditions: Homo sapiens, 4 h, two to four hours at 37° C.
Experimental: (§1) Cell Based AlphaLISA Assays for Determining IC50 for Inhibition of P-Akt (S473), P-4E-BP1 (T37/46), and P-P70S6K (T389) in MDA-MB-468 Cells
(§2) mTOR Kinase Cellular Assay
(§3) To measure functional activity of mTORC1 and mTORC2 in cells the phosphorylation of 4EBP1 (Thr37/46) and P70S6K (Thr389), and AKT1/2/3 (Ser473) was monitored using AlphaLisa SureFire Ultra Kits (Perkin Elmer). […] Incubations were terminated by removal of the assay buffer and addition of lysis buffer provided with the assay kit. Samples were processed according to the manufacturer's instructions. The Alpha signal from the respective phosphoproteins was measured in duplicate using a microplate reader (Envision, Perkin-Elmer or Spectramax M5, Molecular Devices). Inhibitor concentration response curves were analyzed using normalized IC50 regression curve fitting with control based normalization.

[2] = tested on: P-4E-BP1 (T37/46); assay: Cell based AlphaLISA assay, inhibition of P-4E-BP1 (T37/46) (mTORC1 substrate phosphorylation) in MDA-MB-468 cells; conditions: Homo sapiens, two to four hours at 37° C.
Experimental: as §1, §2, §3

[3] = tested on: P-Akt (S473); assay: Cell based AlphaLISA assay, inhibition of P-Akt (S473) (mTORC2 substrate phosphorylation) in MDA-MB-468 cells; conditions: Homo sapiens, two to four hours at 37° C.
Experimental: as §1, §2, §3

[4] = AlphaLISA, read-out: pIC50 for Inhibition of mTORC1 and mTORC2 Substrate Phosphorylation, P-P70S6K-(T389) (converted)
[5] = MDA-MB-468, 4 h, AlphaLISA, read-out: pIC50 for Inhibition of mTORC1 and mTORC2 Substrate Phosphorylation, P-4E-BP1-(T37/46) (converted)
[6] = MDA-MB-468, 4 h, AlphaLISA, read-out: pIC50 for Inhibition of mTORC1 and mTORC2 Substrate Phosphorylation, p-AKT 1/2/3 -(S473) (converted)
[7] = 4 h, AlphaLISA, read-out: pIC50 for Inhibition of mTORC1 and mTORC2 Substrate Phosphorylation, P-4E-BP1-(T37/46) (converted)
[8] = 4 h, AlphaLISA, read-out: pIC50 for Inhibition of mTORC1 and mTORC2 Substrate Phosphorylation, p-AKT 1/2/3 -(S473) (converted)

Row | Structure (SMILES) | IC50 [1, 4] [nM] | IC50 [2, 5] [nM] | IC50 [3, 6] [nM] | IC50 ([2]; MDA-MB-468, 4 h, AlphaLisa SureFire Ultra, read-out: IC50 for Inhibition of mTORC1 and mTORC2 Substrate Phosphorylation, p-4E-BP1-(T37/46)) [nM] | IC50 ([3]; MDA-MB-468, 4 h, AlphaLisa SureFire Ultra, read-out: IC50 for Inhibition of mTORC1 and mTORC2 Substrate Phosphorylation, p-AKT1/2/3-(S473)) [nM] | IC50 ([1]; AlphaLisa SureFire Ultra, read-out: IC50 for Inhibition of mTORC1 and mTORC2 Substrate Phosphorylation, p-P70S6K-(T389)) [nM] | IC50 [2, 7] [nM] | IC50 [3, 8] [nM]
1 | CO[C@@H]1C[C@H](C[C@@H](C)[C@@H]2CC(=O)[C@H](C)/C=C(\C)[C@@H](O)[C@@H](OC)C(=O)[C@H](C)C[C@H](C)/C=C/C=C/C=C(\C)[C@@H](c3ccco3)C[C@@H]3CC[C@@H](C)[C@@](O)(O3)C(=O)C(=O)N3CCCC[C@H]3C(=O)O2)CC[C@H]1OCCCCc1cn(CCOCCOCCOCCOCCOCCOCCC(=O)NCCCCn2nc(-c3ccc4oc(N)nc4c3)c3c(N)ncnc32)nn1 (stereo in doubt) [Example 19] | < 1 |  |  |  |  |  |  | 
2 | CO[C@H]1C[C@@H]2CC[C@@H](C)[C@@](O)(O2)C(=O)C(=O)N2CCCC[C@H]2C(=O)O[C@H]([C@H](C)C[C@@H]2CC[C@H](OCCCCc3cn(CCOCCOCCOCCOCCOCCOCCC(=O)NCCCCn4nc(-c5cccc(C(=O)NC6=NCCS6)c5)c5c(N)ncnc54)nn3)[C@H](OC)C2)CC(=O)[C@H](C)/C=C(\C)[C@@H](O)[C@@H](OC)C(=O)[C@H](C)C[C@H](C)/C=C/C=C/C=C/1C (stereo in doubt) [Example 41] | < 1 | 3.16 to 31.6 | > 1000 |  |  |  |  | 
3 | CO[C@H]1C[C@@H]2CC[C@@H](C)[C@@](O)(O2)C(=O)C(=O)N2CCCCC2C(=O)O[C@H]([C@H](C)C[C@@H]2CC[C@H](n3cc(COCCOCCOCCOCCOCCOCCOCCOCCOCCOCCC(=O)NCCCCn4nc(-c5ccc6oc(N)nc6c5)c5c(N)ncnc54)nn3)[C@H](OC)C2)CC(=O)[C@H](C)/C=C(\C)[C@@H](O)[C@@H](OC)C(=O)[C@H](C)C[C@H](C)/C=C/C=C/C=C/1C (stereo in doubt) [Example 195] | 1 to 10 | 3.16 to 31.6 | 3.16 to 31.6 |  |  |  |  | 
4 | CO[C@H]1C[C@@H]2CC[C@@H](C)[C@@](O)(O2)C(=O)C(=O)N2CCCC[C@H]2C(=O)O[C@H]([C@H](C)C[C@@H]2CC[C@H](n3cc(COCCOCCOCCOCCC(=O)OCCOCCOCCOCCOCCC(=O)NCCCCn4nc(-c5ccc6oc(N)nc6c5)c5c(N)ncnc54)nn3)[C@H](OC)C2)CC(=O)C(C)/C=C(\C)[C@@H](O)[C@@H](OC)C(=O)[C@H](C)C[C@H](C)/C=C/C=C/C=C/1C (stereo in doubt) [Example 197] | 1 to 10 | 3.16 to 31.6 | 31.6 to 1000 |  |  |  |  | 
5 | CO[C@H]1C[C@@H]2CC[C@@H](C)[C@@](O)(O2)C(=O)C(=O)N2CCCC[C@H]2C(=O)O[C@H]([C@H](C)C[C@@H]2CC[C@@H](OCCCCc3cn(CCOCCOCCOCCOCCOCCOCCOCCOCCC(=O)NCCCCn4nc(-c5ccc6oc(N)nc6c5)c5c(N)ncnc54)nn3)[C@H](OC)C2)CC(=O)[C@H](C)/C=C(\C)[C@@H](O)[C@@H](OC)C(=O)[C@H](C)C[C@H](C)/C=C/C=C/C=C/1C [Example 1] | < 1 | < 3.16 | < 3.16 | 1 | 3.9 | 0.3 |  | 
6 | CO[C@H]1C[C@@H]2CC[C@@H](C)[C@@](O)(O2)C(=O)C(=O)N2CCCC[C@H]2C(=O)O[C@H]([C@H](C)C[C@@H]2CC[C@@H](OCCCCc3cn(CCOCCOCCOCCOCCOCCC(=O)NCCCCn4nc(-c5ccc6oc(N)nc6c5)c5c(N)ncnc54)nn3)[C@H](OC)C2)CC(=O)[C@H](C)/C=C(\C)[C@@H](O)[C@@H](OC)C(=O)[C@H](C)C[C@H](C)/C=C/C=C/C=C/1C [Example 2] | < 1 |  |  |  |  |  | 3.16 to 31.6 | 31.6 to 1000
7 | CO[C@H]1C[C@@H]2CC[C@@H](C)[C@@](O)(O2)C(=O)C(=O)N2CCCC[C@H]2C(=O)O[C@H]([C@H](C)C[C@@H]2CC[C@@H](OCCCCc3cn(CCOCCOCCOCCOCCOCCOCCC(=O)NCCCCn4nc(-c5ccc6oc(N)nc6c5)c5c(N)ncnc54)nn3)[C@H](OC)C2)CC(=O)[C@H](C)/C=C(\C)[C@@H](O)[C@@H](OC)C(=O)[C@H](C)C[C@H](C)/C=C/C=C/C=C/1C [Example 3] | < 1 |  |  |  |  |  | < 3.16 | 3.16 to 31.6
8 | CO[C@H]1C[C@@H]2CC[C@@H](C)[C@@](O)(O2)C(=O)C(=O)N2CCCC[C@H]2C(=O)O[C@H]([C@H](C)C[C@@H]2CC[C@@H](OCCCCc3cn(CCOCCOCCOCCOCCOCCOCCOCCOCCC(=O)NCCCCn4nc(I)c5c(N)ncnc54)nn3)[C@H](OC)C2)CC(=O)[C@H](C)/C=C(\C)[C@@H](O)[C@@H](OC)C(=O)[C@H](C)C[C@H](C)/C=C/C=C/C=C/1C [Example 4] | < 1 | > 1000 | > 1000 |  |  |  |  | 
9 | CO[C@H]1C[C@@H]2CC[C@@H](C)[C@@](O)(O2)C(=O)C(=O)N2CCCC[C@H]2C(=O)O[C@H]([C@H](C)C[C@@H]2CC[C@@H](OCCCCc3cn(CCOCCOCCOCCOCCOCCOCCOCCOCCC(=O)NCCCCn4ncc5c(N)ncnc54)nn3)[C@H](OC)C2)CC(=O)[C@H](C)/C=C(\C)[C@@H](O)[C@@H](OC)C(=O)[C@H](C)C[C@H](C)/C=C/C=C/C=C/1C [Example 5] | < 1 | 31.6 to 1000 | > 1000 |  |  |  |  | 
10 | CO[C@H]1C[C@@H]2CC[C@@H](C)[C@@](O)(O2)C(=O)C(=O)N2CCCC[C@H]2C(=O)O[C@H]([C@H](C)C[C@@H]2CC[C@@H](OCCCCc3cn(CCOCCOCCOCCOCCOCCOCCC(=O)NCCCCn4ncc5c(N)ncnc54)nn3)[C@H](OC)C2)CC(=O)[C@H](C)/C=C(\C)[C@@H](O)[C@@H](OC)C(=O)[C@H](C)C[C@H](C)/C=C/C=C/C=C/1C [Example 6] | < 1 | > 1000 | > 1000 |  |  |  |  | 
11 | CO[C@H]1C[C@@H]2CC[C@@H](C)[C@@](O)(O2)C(=O)C(=O)N2CCCC[C@H]2C(=O)O[C@H]([C@H](C)C[C@@H]2CC[C@@H](OCCCCc3cn(CCOCCOCCOCCOCCOCCOCCOCCOCCC(=O)N4CCC(Cn5nc(-c6ccc7oc(N)nc7c6)c6c(N)ncnc65)C4)nn3)[C@H](OC)C2)CC(=O)[C@H](C)/C=C(\C)[C@@H](O)[C@@H](OC)C(=O)[C@H](C)C[C@H](C)/C=C/C=C/C=C/1C (stereo partly shown) [Example 7] | < 1 | < 3.16 | < 3.16 |  |  |  |  | 
12 | CO[C@H]1C[C@@H]2CC[C@@H](C)[C@@](O)(O2)C(=O)C(=O)N2CCCC[C@H]2C(=O)O[C@H]([C@H](C)C[C@@H]2CC[C@@H](OCCCCc3cn(CCOCCOCCOCCOCCOCCOCCC(=O)N4CCC(Cn5nc(-c6ccc7oc(N)nc7c6)c6c(N)ncnc65)C4)nn3)[C@H](OC)C2)CC(=O)[C@H](C)/C=C(\C)[C@@H](O)[C@@H](OC)C(=O)[C@H](C)C[C@H](C)/C=C/C=C/C=C/1C (stereo partly shown) [Example 8] | < 1 | < 3.16 | 3.16 to 31.6 |  |  |  |  | 
13 | CO[C@H]1C[C@@H]2CC[C@@H](C)[C@@](O)(O2)C(=O)C(=O)N2CCCC[C@H]2C(=O)O[C@H]([C@H](C)C[C@@H]2CC[C@@H](OCCOCc3cn(CCOCCOCCOCCOCCOCCOCCOCCOCCC(=O)NCCCCn4nc(-c5ccc6oc(N)nc6c5)c5c(N(C)C)ncnc54)nn3)[C@H](OC)C2)CC(=O)[C@H](C)/C=C(\C)[C@@H](O)[C@@H](OC)C(=O)[C@H](C)C[C@H](C)/C=C/C=C/C=C/1C [Example 9] | < 1 | > 1000 | > 1000 |  |  |  |  | 
14 | CO[C@H]1C[C@@H]2CC[C@@H](C)[C@@](O)(O2)C(=O)C(=O)N2CCCC[C@H]2C(=O)O[C@H]([C@H](C)C[C@@H]2CC[C@@H](OCCOCc3cn(CCOCCOCCOCCOCCOCCOCCC(=O)NCCCCn4nc(-c5ccc6oc(N)nc6c5)c5c(N(C)C)ncnc54)nn3)[C@H](OC)C2)CC(=O)[C@H](C)/C=C(\C)[C@@H](O)[C@@H](OC)C(=O)[C@H](C)C[C@H](C)/C=C/C=C/C=C/1C [Example 10] | < 1 | > 1000 | > 1000 |  |  |  |  | 
